Data taken from ChEMBL document CHEMBL5393459, “O-linked thiadiazolyl compounds as dna polymerase theta inhibitors” (2022).

Molecular target: DNA polymerase theta (Homo sapiens, UniProt O75417)
Assay: Inhibition of human DNA polymerase theta (1 to 899 residues) ATPase activity using dT50 single strand DNA as substrate by NADH oxidation-coupled enzymatic assay

DNA polymerase theta, sequence (O75417 whole entry, the tested form may be a part): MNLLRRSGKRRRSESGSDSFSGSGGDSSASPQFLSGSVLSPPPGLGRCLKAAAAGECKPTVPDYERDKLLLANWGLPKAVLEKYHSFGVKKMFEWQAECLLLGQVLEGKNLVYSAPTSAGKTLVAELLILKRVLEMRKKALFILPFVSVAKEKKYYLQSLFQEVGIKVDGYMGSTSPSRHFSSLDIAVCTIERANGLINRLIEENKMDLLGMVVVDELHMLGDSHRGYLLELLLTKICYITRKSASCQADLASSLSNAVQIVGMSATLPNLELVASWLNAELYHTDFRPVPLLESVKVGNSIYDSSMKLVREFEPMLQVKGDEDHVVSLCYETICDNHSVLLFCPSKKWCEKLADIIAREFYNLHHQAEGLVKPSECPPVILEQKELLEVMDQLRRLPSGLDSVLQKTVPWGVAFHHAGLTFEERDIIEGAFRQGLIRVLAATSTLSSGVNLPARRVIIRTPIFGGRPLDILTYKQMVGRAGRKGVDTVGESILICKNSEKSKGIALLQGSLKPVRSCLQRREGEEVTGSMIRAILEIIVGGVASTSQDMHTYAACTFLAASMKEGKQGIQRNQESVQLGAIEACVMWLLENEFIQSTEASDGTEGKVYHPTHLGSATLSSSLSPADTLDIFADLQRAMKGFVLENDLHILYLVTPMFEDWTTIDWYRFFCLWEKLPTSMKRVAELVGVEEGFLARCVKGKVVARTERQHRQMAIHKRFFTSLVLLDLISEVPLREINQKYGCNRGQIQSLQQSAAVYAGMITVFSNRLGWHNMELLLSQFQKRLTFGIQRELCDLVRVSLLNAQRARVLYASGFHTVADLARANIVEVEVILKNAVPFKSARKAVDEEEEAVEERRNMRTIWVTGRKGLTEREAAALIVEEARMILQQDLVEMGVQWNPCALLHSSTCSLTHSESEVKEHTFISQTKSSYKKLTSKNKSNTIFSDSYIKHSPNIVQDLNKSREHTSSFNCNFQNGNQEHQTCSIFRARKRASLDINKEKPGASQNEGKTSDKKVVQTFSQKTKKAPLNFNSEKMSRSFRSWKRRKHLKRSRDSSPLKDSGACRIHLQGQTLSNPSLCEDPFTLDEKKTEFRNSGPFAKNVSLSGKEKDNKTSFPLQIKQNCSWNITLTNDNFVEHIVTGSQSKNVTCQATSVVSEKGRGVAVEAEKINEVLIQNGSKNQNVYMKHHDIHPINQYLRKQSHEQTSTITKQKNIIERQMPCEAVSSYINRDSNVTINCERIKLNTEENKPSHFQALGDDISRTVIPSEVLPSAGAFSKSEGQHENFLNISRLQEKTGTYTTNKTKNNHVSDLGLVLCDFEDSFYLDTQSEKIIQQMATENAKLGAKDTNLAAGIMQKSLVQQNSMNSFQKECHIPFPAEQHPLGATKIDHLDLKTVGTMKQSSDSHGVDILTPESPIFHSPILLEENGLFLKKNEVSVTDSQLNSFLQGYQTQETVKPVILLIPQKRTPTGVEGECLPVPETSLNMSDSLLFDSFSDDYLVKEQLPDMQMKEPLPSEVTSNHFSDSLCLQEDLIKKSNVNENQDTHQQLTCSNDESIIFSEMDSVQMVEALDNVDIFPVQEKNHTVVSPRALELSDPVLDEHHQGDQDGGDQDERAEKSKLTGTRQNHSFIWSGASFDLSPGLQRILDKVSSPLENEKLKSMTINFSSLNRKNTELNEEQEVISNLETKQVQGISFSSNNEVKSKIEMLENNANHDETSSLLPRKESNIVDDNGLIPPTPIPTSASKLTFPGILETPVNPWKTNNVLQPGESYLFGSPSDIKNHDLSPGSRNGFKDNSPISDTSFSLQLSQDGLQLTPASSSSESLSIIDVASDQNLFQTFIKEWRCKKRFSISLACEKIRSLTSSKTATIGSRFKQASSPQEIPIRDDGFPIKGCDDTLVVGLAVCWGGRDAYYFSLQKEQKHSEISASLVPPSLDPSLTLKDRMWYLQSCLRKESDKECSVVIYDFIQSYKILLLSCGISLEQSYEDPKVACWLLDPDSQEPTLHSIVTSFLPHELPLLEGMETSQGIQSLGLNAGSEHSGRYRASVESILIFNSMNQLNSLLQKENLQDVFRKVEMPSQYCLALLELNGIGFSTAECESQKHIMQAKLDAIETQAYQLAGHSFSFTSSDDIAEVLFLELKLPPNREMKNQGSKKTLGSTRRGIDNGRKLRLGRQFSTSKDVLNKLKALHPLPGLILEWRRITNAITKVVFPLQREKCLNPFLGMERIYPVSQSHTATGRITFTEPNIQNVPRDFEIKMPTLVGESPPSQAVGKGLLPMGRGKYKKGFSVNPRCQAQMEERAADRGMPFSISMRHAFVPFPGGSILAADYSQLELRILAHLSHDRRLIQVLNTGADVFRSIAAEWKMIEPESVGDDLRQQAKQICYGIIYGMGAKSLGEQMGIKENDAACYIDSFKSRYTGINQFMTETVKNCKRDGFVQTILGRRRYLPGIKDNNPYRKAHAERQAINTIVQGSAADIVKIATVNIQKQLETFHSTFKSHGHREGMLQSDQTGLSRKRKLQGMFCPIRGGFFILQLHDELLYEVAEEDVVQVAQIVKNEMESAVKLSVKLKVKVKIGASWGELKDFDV

IC50: > 10 µM
SMILES: COc1nnc(NC(=O)c2cnc(C)cc2-c2c(OC)ccc3scnc23)s1
